What was measured:
[1] = biological target: phosphoribosyl pyrophosphate amidotransferase (Mus musculus, UniProt Q8CIH9); test: In vitro phosphoribosyl pyrophosphate amidotransferase activity; assay type: biochemical; details: read-out: ID50, Phosphoribosyl pyrophosphate amidotransferase activity
Method: CF1 male mice (~30 g) were implanted with 2×10^6 Ehrlich ascites tumor cells, intraperitoneally on Day 0. Compound I was suspended by homogenation in 0.05% polysorbate.80-water and administered intraperitoneally at 10 and 20 mg/kg for 9 days to determine its effectiveness for inhibition of tumor growth. Mice were sacrificed on Day 10, and the ascites fluid was collected from the peritoneal cavity. The volume and ascrit (packed cell volume) were determined for each animal and the percent inhibition of tumor growth was calculated. For the metabolic studies, mice were treated on Days 8 and 9 with 10 mg/kg of Compound I, intraperitoneally. […]
Carbamyl phosphate synthetase activity was determined using the reaction medium of Kalman et al [Am. […] Citrulline formed from ornithine was measured at 490 nm by the method of Archibald [J. Biol. Chem., 156, 121 (1944)]. […] The ^14 CO2 generated in 15 min was trapped in 1M KOH and counted. Thymidylate synthetase activity was determined using a post-mitochondrial supernatant (9000 g×10 min) and 5 μCi of 5-^3 H-deoxyuridine monophosphate (14 Ci/mmol) according to the method of Kampf et al [ J. Med. Chem., 19, 903 (1976)]. ^14 C-Formate incorporation into purines was determined by the method of Spassova et al [Biochem. Pharmacol., 25, 923 (1976)] using 0.5 μCi of ^14 C-formic acid (52.0 mCi/mmol). […] The Rf value for xanthine monophosphate was scraped and counted. […]

Holtzman male rats = test: Rat liver, small intestine and fecal lipid extraction; assay type: in vivo; details: 14 days 10 mg/kg/day orally

Chain of phosphoribosyl pyrophosphate amidotransferase (Q8CIH9 12-517): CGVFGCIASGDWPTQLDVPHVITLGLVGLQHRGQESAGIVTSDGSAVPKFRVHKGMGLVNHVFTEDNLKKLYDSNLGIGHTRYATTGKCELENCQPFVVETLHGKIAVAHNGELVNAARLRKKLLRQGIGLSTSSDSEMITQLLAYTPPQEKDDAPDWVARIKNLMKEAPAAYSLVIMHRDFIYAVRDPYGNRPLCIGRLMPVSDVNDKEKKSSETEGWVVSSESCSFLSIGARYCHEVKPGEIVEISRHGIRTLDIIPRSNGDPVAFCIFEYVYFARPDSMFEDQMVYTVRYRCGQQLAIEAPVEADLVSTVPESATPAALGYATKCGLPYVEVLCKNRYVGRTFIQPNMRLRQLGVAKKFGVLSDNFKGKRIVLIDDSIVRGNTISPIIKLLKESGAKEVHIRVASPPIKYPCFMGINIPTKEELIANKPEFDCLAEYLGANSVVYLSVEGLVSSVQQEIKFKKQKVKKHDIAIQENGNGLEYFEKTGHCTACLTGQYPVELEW

Substance: {Cu[(CH3)3 N.BH2 CO2 ]2.(CH3)3 N.BH2 COOH} [Compound I]
- IC50 [1]: 523 µM
- Cholesterol (Holtzman male rats; rat Feces): 110 ± 6 Percent Control
- Mg of Lipid Extracted (Holtzman male rats; rat Feces): 123 ± 5 Percent Control
- Neutral Lipids (Holtzman male rats; rat Feces): 131 ± 7 Percent Control
- Phospholipids (Holtzman male rats; rat Feces): 183 ± 8 Percent Control
- Protein (Holtzman male rats; rat Feces): 68 ± 6 Percent Control
- Triglyceride (Holtzman male rats; rat Feces): 133 ± 7 Percent Control
- Cholesterol (Holtzman male rats; rat Liver): 65 ± 6 Percent Control
- Mg of Lipid Extracted (Holtzman male rats; rat Liver): 51 ± 5 Percent Control
- Neutral Lipids (Holtzman male rats; rat Liver): 93 ± 9 Percent Control
- Phospholipids (Holtzman male rats; rat Liver): 93 ± 9 Percent Control
- Protein (Holtzman male rats; rat Liver): 99 ± 7 Percent Control
- Triglyceride (Holtzman male rats; rat Liver): 76 ± 7 Percent Control
- Cholesterol (Holtzman male rats; rat Small Intestine): 47 ± 6 Percent Control
- Mg of Lipid Extracted (Holtzman male rats; rat Small Intestine): 43 ± 5 Percent Control
- Neutral Lipids (Holtzman male rats; rat Small Intestine): 17 ± 3 Percent Control
- Phospholipids (Holtzman male rats; rat Small Intestine): 46 ± 5 Percent Control
- Protein (Holtzman male rats; rat Small Intestine): 111 ± 8 Percent Control
- Triglyceride (Holtzman male rats; rat Small Intestine): 40 ± 4 Percent Control

From US4550186A, “Binuclear copper (II) carboxylates formed from amine-carboxyboranes” (Duke University, priority 1983, dated 1985)
